Where a name gives a salt, the structure may show the parent alone.

One data set has as its target T1, rat NaP2b (SLC34A2) (Rattus norvegicus, UniProt Q9JJ09).
T1 construct: host or cells: HEK293
T1 sequence (Q9JJ09 1-695): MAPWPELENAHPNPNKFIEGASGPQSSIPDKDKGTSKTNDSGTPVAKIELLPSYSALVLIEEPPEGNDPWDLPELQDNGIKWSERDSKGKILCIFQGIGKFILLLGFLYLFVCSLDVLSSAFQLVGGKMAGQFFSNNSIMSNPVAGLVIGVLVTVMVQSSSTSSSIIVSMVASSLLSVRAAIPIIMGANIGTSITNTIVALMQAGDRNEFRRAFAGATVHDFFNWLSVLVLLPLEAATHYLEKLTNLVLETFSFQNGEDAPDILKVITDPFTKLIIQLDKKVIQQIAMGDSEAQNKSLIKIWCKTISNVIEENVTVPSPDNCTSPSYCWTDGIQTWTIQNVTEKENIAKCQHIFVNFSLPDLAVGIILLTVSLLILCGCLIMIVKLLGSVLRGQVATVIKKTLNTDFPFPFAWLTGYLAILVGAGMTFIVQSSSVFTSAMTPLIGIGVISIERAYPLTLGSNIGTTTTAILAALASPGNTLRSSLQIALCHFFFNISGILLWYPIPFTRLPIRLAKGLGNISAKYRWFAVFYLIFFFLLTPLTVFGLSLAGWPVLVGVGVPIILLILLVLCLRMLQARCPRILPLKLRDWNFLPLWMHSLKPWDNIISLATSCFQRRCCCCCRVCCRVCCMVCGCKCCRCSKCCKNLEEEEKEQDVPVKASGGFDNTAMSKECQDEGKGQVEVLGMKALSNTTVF
Nature of the data set: Inhibition of NaP2b-mediated Pi (33P) uptake in transfected HEK293 cells, rat NaP2b. The data set is classed as cell-based. As to conditions: 33P Pi uptake, 0.1 mM phosphate, value given as pIC50 range. An outline of the steps:
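HEK293 cells were transiently transfected with NaP2b cDNA using Lipofectamine and grown near confluence. Compounds were tested at twelve concentrations from 0.1 nM to 30 uM in duplicate, and 33P-phosphate uptake was counted by scintillation after lysis. Results are expressed as pIC50.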

A short description of data set [1]: Determination of compound Cmax and AUC after oral gavage (plasma LC-MS/MS). The data set is classed as in vivo, Sprague-Dawley rats. As to conditions: Sprague-Dawley, rat, plasma, po, Structure (I) examples. In outline:
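Sprague-Dawley rats dosed by oral gavage at nominal 2.5 or 10 mg/kg; blood drawn at 0.5, 1, 2 and 4 h into K2EDTA. Plasma protein-precipitated with acetonitrile plus internal standard and analysed by LC-MS/MS against a plasma standard curve to derive Cmax and AUC.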

Where [2] appears, read: Table 15, actual oral dose 3-15 mg/kg, plasma 0.5-4 h.
The mark [3] stands for this setting: Table 15, actual oral dose 15-40 mg/kg, plasma 0.5-4 h.

Regarding `CCN(CC)c1ccc(NC(=O)c2cccc(CSCCOCCOCCOCCOCCOCCOCCOCCOCCC(=O)O)c2)c(-c2cc(C(=O)NCc3cccc(C(F)(F)F)c3)ccn2)c1` [Example 166, 1-(3-(4-(diethylamino)-2-(4-(3-(trifluoromethyl)benzylcarbamoyl)pyridin-2-yl)phenylcarbamoyl)phenyl)-5,8,11,14,17,20,23,26-octaoxa-2-thianonacosan-29-oic acid], the IC50 (commonly the concentration that gives 50% inhibition) at rat NaP2b (SLC34A2) was 1000 to 7940 nM. The AUC (usually the area under the concentration-time curve, a measure of exposure) in data set [1] (setting [2]) was less than 10 ng·h/mL; in data set [1] (setting [3]) it was less than 50 ng·h/mL. For the same molecule, the Cmax (usually the peak of the concentration-time curve) in data set [1] (setting [2]) was less than 10 ng/mL; in data set [1] (Table 15, plasma 0.5-4 h), more than 50 ng/mL.

As for `O=C(O)CCOCCOCCOCCNC(=O)c1cccc2c1ccn2Cc1cccc(C(=O)Nc2ccc(N3CCCCC3)cc2-c2cc(C(=O)N[C@H]3CCCc4ccccc43)ccn2)c1` [Example 181, (S)-1-oxo-1-(1-(3-(4-(piperidin-1-yl)-2-(4-(1,2,3,4-tetrahydronaphthalen-1-ylcarbamoyl)pyridin-2-yl)phenylcarbamoyl)benzyl)-1H-indol-4-yl)-5,8,11-trioxa-2-azatetradecan-14-oic acid], on rat NaP2b (SLC34A2), the half-inhibitory concentration (IC50) is less than 1000 nM. In data set [1] (setting [2]), this molecule returned an AUC of less than 30 ng·h/mL and a Cmax of less than 30 ng/mL.

Regarding `CCN(CC)c1ccc(NC(=O)c2cccc(C(=O)N(C)CCOCCOCCOCCC(=O)O)c2)c(-c2cc(C(=O)NCc3cccc(C(F)(F)F)c3)ccn2)c1` [Example 188, 1-(3-((4-(diethylamino)-2-(4-((3-(trifluoromethyl)benzyl)carbamoyl)pyridin-2-yl)phenyl)carbamoyl)phenyl)-2-methyl-1-oxo-5,8,11-trioxa-2-azatetradecan-14-oic acid], the IC50 against rat NaP2b (SLC34A2) was 1000 to 7940 nM. Besides, in data set [1] (setting [2]), the area under the curve (AUC) was less than 10 ng·h/mL and the Cmax was less than 10 ng/mL.

As for `CCCN(CCC)c1ccc(NC(=O)c2cccc(COCCOCCOCCOCCOCCOCCOCCOCCOC)c2)c(-c2cc(C(=O)NCc3cccc(C(F)(F)F)c3)ccn2)c1` [Example 200, 2-(2-(3-(2,5,8,11,14,17,20,23,26-nonaoxaheptacosyl)benzamido)-5-(dipropylamino)phenyl)-N-(3-(trifluoromethyl)benzyl)isonicotinamide], the IC50 against rat NaP2b (SLC34A2) was 1000 to 7940 nM. In data set [1] (setting [2]), this molecule showed an AUC of less than 30 ng·h/mL and a Cmax of less than 30 ng/mL.

For the molecule `CCN(CC)c1ccc(NC(=O)c2cccc(CCCOCCOCCOCCOCCC(=O)O)c2)c(-c2cc(C(=O)NCc3cccc(C(F)(F)F)c3)ccn2)c1` [Example 251, 16-(3-(4-(diethylamino)-2-(4-(3-(trifluoromethyl)benzylcarbamoyl)pyridin-2-yl)phenylcarbamoyl)phenyl)-4,7,10,13-tetraoxahexadecan-1-oic acid], the IC50 against rat NaP2b (SLC34A2) was 1000 to 7940 nM. In data set [1] (setting [2]), the area under the curve (AUC) is less than 10 ng·h/mL and the Cmax is less than 10 ng/mL.

In turn, `O=C(O)CCOCCOCCOCCOCCCc1cccc(C(=O)Nc2ccc(N3CCCCC3)cc2-c2cc(C(=O)N[C@H]3CCCc4ccccc43)ccn2)c1` [Example 252, 3-(2-(2-(2-(3-(3-((2-(4-(((S)-1,2,3,4-tetrahydronaphthalen-1-yl)carbamoyl)pyridin-2-yl)-4-(piperidin-1-yl)phenyl)carbamoyl)phenyl)propoxy)ethoxy)ethoxy)ethoxy)propanoic acid] gave an IC50 on rat NaP2b (SLC34A2) of less than 1000 nM. Besides, in data set [1] (setting [2]), the AUC was less than 30 ng·h/mL and the Cmax was less than 30 ng/mL.

On rat NaP2b (SLC34A2), `CCN(CC)c1ccc(NC(=O)c2cccc(CCCOCCOCCOCCOCCOCCOCCOCCOCCOC)c2)c(-c2cc(C(=O)N[C@H]3CCCc4ccccc43)ccn2)c1` [Example 261, (S)-2-(2-(3-(2,5,8,11,14,17,20,23,26-nonaoxanonacosan-29-yl)benzamido)-5-(diethylamino)phenyl)-N-(1,2,3,4-tetrahydronaphthalen-1-yl)isonicotinamide] showed an IC50 of less than 1000 nM. Besides, in data set [1] (setting [2]), the exposure (AUC) is more than 50 ng·h/mL and the Cmax is less than 50 ng/mL.

Consider `CCN(CC)c1ccc(NC(=O)c2cccc(CSCCOCCOCCOCCOCCOCCOCCOCCOC)c2)c(-c2cc(C(=O)NCc3cccc(C(F)(F)F)c3)ccn2)c1` [Example 265, 2-(2-(3-(2,5,8,11,14,17,20,23-octaoxa-26-thiaheptacosan-27-yl)benzamido)-5-(diethylamino)phenyl)-N-(3-(trifluoromethyl)benzyl)isonicotinamide], for which the half-inhibitory concentration (IC50) on rat NaP2b (SLC34A2) is less than 1000 nM. In addition, in data set [1] (setting [2]), the AUC was less than 30 ng·h/mL and the Cmax was less than 30 ng/mL.

Consider `CCN(CC)c1ccc(NC(=O)c2cccc(CCCOCCOCCOCCOCCOCCOCCOCCOCCOC)c2)c(-c2cc(C(=O)NCc3cccc(C(F)(F)F)c3)ccn2)c1` [Example 269, 2-(2-(3-(2,5,8,11,14,17,20,23,26-nonaoxanonacosan-29-yl)benzamido)-5-(diethylamino)phenyl)-N-(3-(trifluoromethyl)benzyl)isonicotinamide], for which the IC50 against rat NaP2b (SLC34A2) was 1000 to 7940 nM. In data set [1] (setting [2]), this molecule displayed an AUC of less than 10 ng·h/mL and a Cmax of less than 10 ng/mL.

`CCN(CC)c1ccc(NC(=O)c2cccc(CCCOCCOCCOCCOCCNS(=O)(=O)c3ccc(C(=O)N(CCOC)CCOCCOCCOCCOCCOCCOCCOC)cc3)c2)c(-c2cc(C(=O)NCc3cccc(C(F)(F)F)c3)ccn2)c1` [Example 272, 2-(2-(3-(1-(4-(2,5,8,11,14,17,20-heptaoxadocosan-22-yl(2-methoxyethyl)carbamoyl)phenylsulfonamido)-3,6,9,12-tetraoxapentadecan-15-yl)benzamido)-5-(diethylamino)phenyl)-N-(3-(trifluoromethyl)benzyl)isonicotinamide]: the IC50 at rat NaP2b (SLC34A2) is 1000 to 7940 nM. For the same molecule, the AUC in data set [1] (setting [3]) is less than 10 ng·h/mL. In addition, the Cmax in data set [1] (Table 15, plasma 0.5-4 h) was less than 10 ng/mL.

Regarding `CCN(CC)c1ccc(NC(=O)c2cccc(CSCCOCCOCCOCCOCCOCCOCCOCCOC)c2)c(-c2cc(C(=O)N[C@H]3CCCc4ccccc43)ccn2)c1` [Example 286, (S)-2-(2-(3-(2,5,8,11,14,17,20,23-octaoxa-26-thiaheptacosan-27-yl)benzamido)-5-(diethylamino)phenyl)-N-(1,2,3,4-tetrahydronaphthalen-1-yl)isonicotinamide], the IC50 on rat NaP2b (SLC34A2) is less than 1000 nM. In data set [1] (setting [2]), this molecule gave an AUC of less than 10 ng·h/mL and a Cmax of less than 10 ng/mL.

`CCN(CC)c1ccc(NC(=O)c2cccc(CCCOCCOCCOCCOCCOCCOCCOCCOCCOCCC(=O)O)c2)c(-c2cc(C(=O)NCc3cccc(C(F)(F)F)c3)ccn2)c1` [Example 298, 31-(3-(4-(diethylamino)-2-(4-(3-(trifluoromethyl)benzylcarbamoyl)pyridin-2-yl)phenylcarbamoyl)phenyl)-4,7,10,13,16,19,22,25,28-nonaoxahentriacontan-1-oic acid] had an IC50 against rat NaP2b (SLC34A2) of 1000 to 7940 nM. The AUC in data set [1] (setting [3]) was less than 30 ng·h/mL. This molecule gave a Cmax in data set [1] (Table 15, plasma 0.5-4 h) of less than 30 ng/mL.

Take `CCN(CC)c1ccc(NC(=O)c2cccc(CCCOCCOCCOCCOCCOCCOCCC(=O)O)c2)c(-c2cc(C(=O)NCc3cccc(C(F)(F)F)c3)ccn2)c1` [Example 299, 22-(3-(4-(diethylamino)-2-(4-(3-(trifluoromethyl)benzylcarbamoyl)pyridin-2-yl)phenylcarbamoyl)phenyl)-4,7,10,13,16,19-hexaoxadocosan-1-oic acid]: at rat NaP2b (SLC34A2), the IC50 was 1000 to 7940 nM. In data set [1] (setting [3]), this molecule showed an AUC of less than 30 ng·h/mL. Further, in data set [1] (Table 15, plasma 0.5-4 h), the Cmax is less than 30 ng/mL.

Molecule `CCN(CC)c1ccc(NC(=O)c2cccc(CCCOCCOCCOCCOCCOCCC(=O)O)c2)c(-c2cc(C(=O)NCc3cccc(C(F)(F)F)c3)ccn2)c1` [Example 300, 19-(3-(4-(diethylamino)-2-(4-(3-(trifluoromethyl)benzylcarbamoyl)pyridin-2-yl)phenylcarbamoyl)phenyl)-4,7,10,13,16-pentaoxanonadecan-1-oic acid] had an IC50 on rat NaP2b (SLC34A2) of 1000 to 7940 nM. The molecule also came in with an AUC in data set [1] (setting [3]) of less than 30 ng·h/mL. Further, the Cmax in data set [1] (Table 15, plasma 0.5-4 h) is less than 10 ng/mL.

On rat NaP2b (SLC34A2), `CCN(CC)c1ccc(NC(=O)c2cccc(C(=O)N(C)CCN(CCOC)CCOCCOCCOCCOCCOCCOCCOC)c2)c(-c2cc(C(=O)NCc3cccc(C(F)(F)F)c3)ccn2)c1` [Example 335, N^1-(4-(Diethylamino)-2-(4-(3-(trifluoromethyl)benzylcarbamoyl)pyridin-2-yl)phenyl)-N^3-(23-(2-methoxyethyl)-2,5,8,11,14,17,20-heptaoxa-23-azapentacosan-25-yl)-N^3-methylisophthalamide, trifluoroacetate] showed an IC50 of 1000 to 7940 nM. In data set [1] (setting [2]), this molecule registered an AUC of more than 50 ng·h/mL and a Cmax of less than 10 ng/mL.

The values are drawn from patent publication US20140023611A1 (priority 2010, published 2014).
